Experimental data taken from ChEMBL document CHEMBL5108015, “4,6-Disubstituted-1H-Indazole-4-Amine derivatives with immune-chemotherapy effect and in vivo antitumor activity” (Eur J Med Chem, 2022).

What was measured:
[1] = biological target: T1, Tryptophan 2,3-dioxygenase (Homo sapiens, UniProt P48775); experiment: (§1) Inhibition of N-terminal hexa-histidine tagged human TDO (19 to 388 residues) expressed in Escherichia coli Transetta (DE3) using L-tryptophan as substrate at 10 uM preincubated with enzyme for 10 mins followed by substrate addition and measured after 30 to 60 mins by microplate reader analysis relative to control; settings: time 40-70 min
Target sequence in this assay (P48775 whole entry, looked up, the tested form may be a part): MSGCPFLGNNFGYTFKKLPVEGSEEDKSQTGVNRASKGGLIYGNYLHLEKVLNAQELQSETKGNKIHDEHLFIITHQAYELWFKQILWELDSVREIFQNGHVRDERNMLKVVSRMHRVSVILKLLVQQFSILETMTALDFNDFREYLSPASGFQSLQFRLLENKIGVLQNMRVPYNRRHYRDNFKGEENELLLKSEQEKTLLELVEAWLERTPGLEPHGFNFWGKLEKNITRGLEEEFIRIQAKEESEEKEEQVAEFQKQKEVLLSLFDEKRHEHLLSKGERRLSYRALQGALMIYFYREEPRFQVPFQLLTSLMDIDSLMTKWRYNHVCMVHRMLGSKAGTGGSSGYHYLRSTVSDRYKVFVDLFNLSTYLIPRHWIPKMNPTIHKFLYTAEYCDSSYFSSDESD

[2] = biological target: T2, Indoleamine 2,3-dioxygenase 1 (Homo sapiens, UniProt P14902); experiment: as §1, with “IDO1 (12” for “TDO (19”, “403” for “388”; settings: time 40-70 min
Target sequence in this assay (P14902 whole entry, looked up, the tested form may be a part): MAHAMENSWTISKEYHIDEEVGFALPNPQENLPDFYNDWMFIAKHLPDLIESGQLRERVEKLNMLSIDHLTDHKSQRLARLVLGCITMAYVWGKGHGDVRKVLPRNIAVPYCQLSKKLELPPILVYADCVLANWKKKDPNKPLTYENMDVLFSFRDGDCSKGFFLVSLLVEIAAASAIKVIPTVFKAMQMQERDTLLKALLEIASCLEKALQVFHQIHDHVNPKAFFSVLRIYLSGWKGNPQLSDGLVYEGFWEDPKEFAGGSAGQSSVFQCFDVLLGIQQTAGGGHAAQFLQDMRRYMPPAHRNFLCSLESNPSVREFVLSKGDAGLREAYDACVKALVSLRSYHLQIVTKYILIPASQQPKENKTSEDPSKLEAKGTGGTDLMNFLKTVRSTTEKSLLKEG

[3] = biological target: T1, Tryptophan 2,3-dioxygenase; experiment: Inhibition of N-terminal hexa-histidine tagged human TDO (19 to 388 residues) expressed in Escherichia coli Transetta (DE3) using L-tryptophan as substrate preincubated with enzyme for 10 mins followed by substrate addition and measured after 30 to 60 mins by microplate reader analysis
Target sequence in this assay (P48775 whole entry, the tested form may be a part): as the sequence (P48775 whole entry, looked up, the tested form may be a part) above

[4] = biological target: T2, Indoleamine 2,3-dioxygenase 1; experiment: as §1, with “human IDO1 (12” for “human TDO (19”, “to 403” for “to 388”, “at 100” for “at 10”; settings: time 40-70 min
Target sequence in this assay (P14902 whole entry, looked up, the tested form may be a part): as the sequence (P14902 whole entry, looked up, the tested form may be a part) above

[5] = biological target: T2, Indoleamine 2,3-dioxygenase 1; experiment: Inhibition of N-terminal hexa-histidine tagged human IDO1 (12 to 403 residues) expressed in Escherichia coli Transetta (DE3) using L-tryptophan as substrate preincubated with enzyme for 10 mins followed by substrate addition and measured after 30 to 60 mins by microplate reader analysis
Target sequence in this assay (P14902 whole entry, the tested form may be a part): as the sequence (P14902 whole entry, looked up, the tested form may be a part) above

[6] = biological target: T1, Tryptophan 2,3-dioxygenase; experiment: as §1, with “at 100” for “at 10”; settings: time 40-70 min
Target sequence in this assay (P48775 whole entry, looked up, the tested form may be a part): as the sequence (P48775 whole entry, looked up, the tested form may be a part) above

[7] = tested on: HepG2; experiment: Cytotoxicity against human HepG2 cells assessed as inhibition of cell growth incubated for 24 hrs by MTT assay; type: functional, cell-based; settings: HepG2, 24 h
[8] = tested on: MOLM-13; experiment: Cytotoxicity against human MOLM-13 cells assessed as inhibition of cell growth incubated for 24 hrs by MTT assay; type: functional, cell-based; settings: MOLM-13, 24 h
[9] = tested on: Jurkat; experiment: Cytotoxicity against human Jurkat cells assessed as inhibition of cell growth incubated for 24 hrs by MTT assay; type: functional, cell-based
[10] = tested on: B16; experiment: Cytotoxicity against mouse B16 cells assessed as inhibition of cell growth incubated for 24 hrs by MTT assay; type: functional, cell-based; settings: B16, 24 h
[11] = Cytotoxicity against […] cells assessed as inhibition of cell growth incubated for 24 hrs by MTT assay; type: functional, cell-based; settings: Mus musculus, Hepa1-6, 24 h
[12] = tested on: H22; experiment: Cytotoxicity against mouse H22 cells assessed as inhibition of cell growth incubated for 24 hrs by MTT assay; type: functional, cell-based; settings: H22, 24 h

Compound	inhibition [1]	inhibition [2]	IC50 [3]	inhibition [4]	IC50 [5]	inhibition [6]	IC50 [7]	IC50 [8]	IC50 [9]	IC50 [10]	IC50 [11]	IC50 [12]
FC(F)(F)c1cc(NCC2CNC2)c2cn[nH]c2c1	5%	10%	> 100 µM	22%	> 100 µM	49%	–	–	–	–	–	–
Nc1cccc(CNc2cc(C(F)(F)F)cc3[nH]ncc23)c1	68%	24%	2.51 µM	55%	> 100 µM	89%	–	–	–	–	–	–
COc1cc(CNc2cc(Br)cc3[nH]ncc23)c([N+](=O)[O-])cc1OC	87%	48%	1.04 µM	79%	18.5 µM	95%	2.97 µM	> 20 µM	> 20 µM	> 20 µM	15.2 µM	6.11 µM
O=[N+]([O-])c1ccc2[nH]c(CNc3cc(C(F)(F)F)cc4[nH]ncc34)cc2c1	54%	22%	> 100 µM	38%	> 100 µM	69%	–	–	–	–	–	–
O=[N+]([O-])c1cc(Cl)ccc1CNc1cc(C(F)(F)F)cc2[nH]ncc12	90%	50%	1.7 µM	77%	18 µM	93%	5.82 µM	4.13 µM	8.04 µM	> 20 µM	> 20 µM	10.3 µM
O=[N+]([O-])c1ccc(CNc2cc(Br)cc3[nH]ncc23)cc1	87%	63%	2.23 µM	87%	6.97 µM	93%	> 20 µM	> 20 µM	> 20 µM	> 20 µM	> 20 µM	> 20 µM
Oc1ccc(CNc2cc(C(F)(F)F)cc3[nH]ncc23)cc1	75%	37%	2.55 µM	81%	36.7 µM	91%	–	–	–	–	–	–
O=[N+]([O-])c1cccc(CNc2cc(Br)cc3[nH]ncc23)c1	91%	72%	1.6 µM	95%	7.95 µM	97%	23.6 µM	> 20 µM	> 20 µM	> 20 µM	> 20 µM	> 20 µM
O=[N+]([O-])c1cc(Br)c(F)cc1CNc1cc(C(F)(F)F)cc2[nH]ncc12	85%	31%	1.46 µM	64%	> 100 µM	88%	1.96 µM	4.27 µM	2.82 µM	13.8 µM	15 µM	1.85 µM
FC(F)(F)c1cccc(CNc2cc(C(F)(F)F)cc3[nH]ncc23)c1	40%	25%	12.2 µM	49%	> 100 µM	74%	–	–	–	–	–	–
O=C(O)CNc1cccc(CNc2cc(C(F)(F)F)cc3[nH]ncc23)c1	–	–	> 100 µM	8%	> 100 µM	65%	–	–	–	–	–	–
O=[N+]([O-])c1cccc(CNc2cc(C(F)(F)F)cc3[nH]ncc23)c1	60%	45%	5.17 µM	69%	> 100 µM	82%	–	–	–	–	–	–
CNC(=O)c1cccc(CNc2cc(C(F)(F)F)cc3[nH]ncc23)c1	71%	33%	4.87 µM	46%	> 100 µM	91%	–	–	–	–	–	–
Oc1ccc(CNc2cc(C(F)(F)F)cc3[nH]ncc23)c(Cl)c1	92%	83%	2.68 µM	95%	6.02 µM	97%	–	–	–	–	–	–
FC(F)(F)c1cc(NCc2cccc(Br)c2)c2cn[nH]c2c1	67%	23%	19.1 µM	51%	> 100 µM	84%	–	–	–	–	–	–
FC(F)(F)c1cc(NC[C@H]2CCCCN2)c2cn[nH]c2c1	69%	19%	0.46 µM	69%	24 µM	90%	–	–	–	–	–	–
O=[N+]([O-])c1ccc(CNc2cc(C(F)(F)F)cc3[nH]ncc23)cc1	47%	52%	> 100 µM	61%	61 µM	64%	–	–	–	–	–	–
O=C(O)c1cccc(CNc2cc(C(F)(F)F)cc3[nH]ncc23)c1	81%	11%	1.69 µM	17%	> 100 µM	94%	–	–	–	–	–	–
OC1CCCC(Nc2cccc(CNc3cc(C(F)(F)F)cc4[nH]ncc34)c2)C1 (stereo not drawn)	–	–	> 100 µM	2%	> 100 µM	23%	–	–	–	–	–	–
FC(F)(F)c1cc(NCc2cccc3sccc23)c2cn[nH]c2c1	–	–	> 100 µM	3%	> 100 µM	5%	–	–	–	–	–	–

Continued, in another order:

inhibition [1]	inhibition [2]	IC50 [3]	inhibition [4]	IC50 [5]	inhibition [6]	Compound	IC50 [7]	IC50 [8]	IC50 [9]	IC50 [10]	IC50 [11]	IC50 [12]
35%	4%	> 100 µM	9%	> 100 µM	48%	O=[N+]([O-])c1ccccc1CNc1cc(Br)cc2cn[nH]c12	–	–	–	–	–	–
17%	11%	> 100 µM	4%	> 100 µM	25%	O=C1NC(=O)c2c(NCc3ccccc3[N+](=O)[O-])cccc21	–	–	–	–	–	–
25%	9%	> 100 µM	30%	> 100 µM	29%	NCCn1ncc2c(NCc3ccccc3[N+](=O)[O-])cc(C(F)(F)F)cc21	–	–	–	–	–	–
16%	11%	> 100 µM	47%	> 100 µM	20%	COC(=O)c1cc(NCc2ccccc2[N+](=O)[O-])c2cn[nH]c2c1	–	–	–	–	–	–
35%	7%	> 100 µM	13%	> 100 µM	32%	CC(C)n1ncc2c(NCc3ccccc3[N+](=O)[O-])cc(C(F)(F)F)cc21	–	–	–	–	–	–
22%	7%	> 100 µM	17%	> 100 µM	41%	N#Cc1cc(NCc2ccccc2[N+](=O)[O-])c2cn[nH]c2c1	–	–	–	–	–	–
45%	25%	17 µM	65%	–	87%	O=[N+]([O-])c1ccccc1CNc1cccc2[nH]ncc12	–	–	–	–	–	–
23%	8%	> 100 µM	9%	> 100 µM	29%	O=C1NCc2c(NCc3ccccc3[N+](=O)[O-])cccc21	–	–	–	–	–	–
49%	10%	97 µM	20%	> 100 µM	55%	O=[N+]([O-])c1cc(OCc2ccccc2)ccc1CNc1cc(C(F)(F)F)cc2[nH]ncc12	–	–	–	–	–	–
52%	67%	38.9 µM	83%	8.04 µM	64%	O=[N+]([O-])c1ccccc1CNc1cc(Br)cc2[nH]ncc12	–	–	–	–	–	–
